From US9475815B2, “Substituted benzothienyl-pyrrolotriazines and uses thereof” (Bayer Intellectual Property GmbH, priority 2012, dated 2016)
Structures can show the parent of a compound that is named as a salt.

Tests used:
[1] = molecular target: human mTOR (Homo sapiens (Human), UniProt P42345); assay: mTOR kinase assay (TR-FRET, for comparative purposes); format: biochemical; settings: for inhibition at 1 µM: read-out: mTOR % inhibition @ 1 μM, 1 μM test compound, 40 μM ATP, mean values
Description: mTOR inhibitory activity of the compounds of the present invention was quantified employing the TR-FRET based mTOR assay as described in the following paragraphs:
Test compounds were dissolved in DMSO to generate 10 mM stock solutions. These solutions were first 10-fold diluted by 100% DMSO to get 1 mM solutions in 100% DMSO, then 100-fold diluted by 50% DMSO to get 10 μM solutions in 50% DMSO.
(final concentration in the 10 μl assay volume=1 nM) in FRET buffer.
For this, the fluorescence emissions at 495 nm and 520 nm after excitation at 340 nm was measured in an Envision 2104 multilabel reader (Perkin-Elmer).

[2] = molecular target: human FGFR-1 (Homo sapiens, UniProt P11362); assay: FGFR-1 high ATP kinase assay (TR-FRET)
Chain of human FGFR-1 (P11362 22-822 limits assumed): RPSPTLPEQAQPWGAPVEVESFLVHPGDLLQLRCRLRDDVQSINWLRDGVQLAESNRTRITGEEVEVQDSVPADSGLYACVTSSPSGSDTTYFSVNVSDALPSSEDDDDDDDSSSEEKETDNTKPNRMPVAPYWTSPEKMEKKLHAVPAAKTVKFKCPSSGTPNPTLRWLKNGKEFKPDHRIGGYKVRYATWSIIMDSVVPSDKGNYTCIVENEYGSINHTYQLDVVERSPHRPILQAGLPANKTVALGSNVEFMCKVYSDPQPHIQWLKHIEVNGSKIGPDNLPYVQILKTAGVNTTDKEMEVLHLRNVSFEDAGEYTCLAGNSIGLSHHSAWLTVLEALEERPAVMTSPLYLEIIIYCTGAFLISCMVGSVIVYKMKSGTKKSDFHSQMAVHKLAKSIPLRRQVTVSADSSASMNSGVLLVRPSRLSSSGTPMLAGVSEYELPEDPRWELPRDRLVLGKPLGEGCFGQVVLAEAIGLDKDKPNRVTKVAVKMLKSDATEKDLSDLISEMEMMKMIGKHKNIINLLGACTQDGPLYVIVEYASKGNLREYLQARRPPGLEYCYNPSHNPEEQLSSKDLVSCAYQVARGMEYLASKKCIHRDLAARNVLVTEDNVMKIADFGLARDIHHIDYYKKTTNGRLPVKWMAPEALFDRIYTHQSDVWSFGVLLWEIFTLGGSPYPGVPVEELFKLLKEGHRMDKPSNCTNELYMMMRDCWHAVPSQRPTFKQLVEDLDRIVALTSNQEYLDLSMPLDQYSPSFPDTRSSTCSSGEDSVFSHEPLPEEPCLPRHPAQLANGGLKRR

[3] = molecular target: human FGFR-3 (Homo sapiens (Human), UniProt P22607); assay: FGFR-3 kinase assay (TR-FRET); format: biochemical; settings: 10 μM ATP, 15 min pre-incubation with enzyme
Chain of human FGFR-3 (P22607 397-806): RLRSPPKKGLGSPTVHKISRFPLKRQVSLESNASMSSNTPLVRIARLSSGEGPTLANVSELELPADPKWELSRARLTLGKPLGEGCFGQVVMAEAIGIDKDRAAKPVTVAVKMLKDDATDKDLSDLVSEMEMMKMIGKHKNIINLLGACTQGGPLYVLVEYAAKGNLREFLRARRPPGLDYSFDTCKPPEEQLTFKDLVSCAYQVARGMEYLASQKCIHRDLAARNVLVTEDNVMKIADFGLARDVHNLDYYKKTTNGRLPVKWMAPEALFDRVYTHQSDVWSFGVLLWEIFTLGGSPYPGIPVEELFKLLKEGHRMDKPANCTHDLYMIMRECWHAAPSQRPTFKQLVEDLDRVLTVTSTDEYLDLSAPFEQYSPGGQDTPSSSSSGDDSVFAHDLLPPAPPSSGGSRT

Chain of human mTOR (P42345 1360-2549): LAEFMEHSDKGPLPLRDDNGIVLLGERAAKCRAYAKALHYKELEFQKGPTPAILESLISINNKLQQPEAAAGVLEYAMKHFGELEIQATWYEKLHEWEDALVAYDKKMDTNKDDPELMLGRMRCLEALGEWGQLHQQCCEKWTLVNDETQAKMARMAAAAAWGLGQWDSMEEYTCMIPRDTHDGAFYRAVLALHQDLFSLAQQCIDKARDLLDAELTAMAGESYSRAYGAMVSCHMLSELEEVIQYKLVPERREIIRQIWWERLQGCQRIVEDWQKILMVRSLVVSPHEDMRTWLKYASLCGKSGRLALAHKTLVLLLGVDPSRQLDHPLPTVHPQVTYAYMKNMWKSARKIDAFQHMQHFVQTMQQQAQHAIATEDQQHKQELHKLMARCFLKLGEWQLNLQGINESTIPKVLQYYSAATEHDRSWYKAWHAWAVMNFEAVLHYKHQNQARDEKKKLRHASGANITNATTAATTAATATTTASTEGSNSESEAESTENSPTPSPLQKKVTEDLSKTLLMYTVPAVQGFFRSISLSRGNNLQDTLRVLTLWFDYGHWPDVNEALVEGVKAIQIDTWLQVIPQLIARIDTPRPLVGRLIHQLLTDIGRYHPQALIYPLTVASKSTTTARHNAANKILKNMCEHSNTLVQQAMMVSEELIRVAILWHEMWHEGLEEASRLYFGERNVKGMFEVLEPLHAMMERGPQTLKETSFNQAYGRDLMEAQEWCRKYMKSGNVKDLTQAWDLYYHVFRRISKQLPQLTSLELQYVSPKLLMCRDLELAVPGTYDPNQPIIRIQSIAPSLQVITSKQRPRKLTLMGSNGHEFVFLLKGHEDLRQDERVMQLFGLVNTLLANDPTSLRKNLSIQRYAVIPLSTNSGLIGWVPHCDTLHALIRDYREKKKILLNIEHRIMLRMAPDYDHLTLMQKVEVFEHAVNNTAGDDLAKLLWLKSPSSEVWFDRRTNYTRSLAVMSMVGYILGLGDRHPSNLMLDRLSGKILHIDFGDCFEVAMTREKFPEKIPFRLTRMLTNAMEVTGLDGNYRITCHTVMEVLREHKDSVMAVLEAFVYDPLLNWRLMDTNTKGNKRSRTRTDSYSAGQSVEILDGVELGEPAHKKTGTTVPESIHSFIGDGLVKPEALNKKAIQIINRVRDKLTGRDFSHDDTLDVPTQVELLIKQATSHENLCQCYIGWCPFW

With `COc1cccc2cc(-c3cc(CN4CCNCC4)n4ncnc(N)c34)sc12` [Example 3, 5-(7-Methoxy-1-benzothiophen-2-yl)-7-(piperazin-1-ylmethyl)pyrrolo[2,1-f][1,2,4]triazin-4-amine] the inhibition at 1 µM [1] was 12.2% and the IC50 [2] was 0.0928 µM.

For `COc1cc(Cl)cc2cc(-c3cc(CN4CCNCC4)n4ncnc(N)c34)sc12` [Example 4, 5-(5-Chloro-7-methoxy-1-benzothiophen-2-yl)-7-(piperazin-1-ylmethyl)pyrrolo[2,1-f][1,2,4]-triazin-4-amine trihydrochloride], the IC50 [3] was 0.079 µM, the inhibition at 1 µM [1] was 26.2% and the IC50 [2] was 0.0347 µM.

With `COc1cc(C)cc2cc(-c3cc(CN4CCNC(=O)C4(C)C)n4ncnc(N)c34)sc12` [Example 11, 4-{[4-Amino-5-(7-methoxy-5-methyl-1-benzothiophen-2-yl)pyrrolo[2,1-f][1,2,4]triazin-7-yl]-methyl}-3,3-dimethylpiperazin-2-one] the IC50 [3] was 0.146 µM, the inhibition at 1 µM [1] was 27.8% and the IC50 [2] was 0.095 µM.

In the case of `COc1cc(C)cc2cc(-c3cc(CN4CCN(C)CC4)n4ncnc(N)c34)sc12` [Example 12, 5-(7-Methoxy-5-methyl-1-benzothiophen-2-yl)-7-[(4-methylpiperazin-1-yl)methyl]pyrrole[2,1-f]-[1,2,4]triazin-4-amine bis(formiate)], the inhibition at 1 µM [1] is reported as 11.4% and the IC50 [2] is reported as 0.0391 µM.

Molecule `CCN1CCN(Cc2cc(-c3cc4cc(C)cc(OC)c4s3)c3c(N)ncnn23)CC1` [Example 13, 7-[(4-Ethylpiperazin-1-yl)methyl]-5-(7-methoxy-5-methyl-1-benzothiophen-2-yl)pyrrole[2,1-f]-[1,2,4]triazin-4-amine formiate] has an inhibition at 1 µM [1] of 25.2% and an IC50 [2] of 0.0936 µM.

`COc1cc(C)cc2cc(-c3cc(CN4CC(O)C(NCCO)C4)n4ncnc(N)c34)sc12` (stereo not shown) [Example 21] showed an IC50 [3] of 0.008 µM, an inhibition at 1 µM [1] of 37.6% and an IC50 [2] of 0.0132 µM.

For `COc1cc(C)cc2cc(-c3cc(CN4CC5CNCC5C4)n4ncnc(N)c34)sc12` (stereo not shown) [Example 23], the IC50 [3] was 0.0694 µM, the inhibition at 1 µM [1] was 28.1% and the IC50 [2] was 0.0193 µM.

Molecule `COc1cc(C)cc2cc(-c3cc(CN4CCC5CN(C)CC54)n4ncnc(N)c34)sc12` (stereo not shown) [Example 24] has an IC50 [3] of 0.119 µM, an inhibition at 1 µM [1] of 17.3% and an IC50 [2] of 0.0341 µM.

In the case of `COc1cc(C)cc2cc(-c3cc(CN4CCN(CCO)CC4)n4ncnc(N)c34)sc12` [Example 25], the inhibition at 1 µM [1] is reported as 10.2% and the IC50 [2] is reported as 0.0733 µM.

In the case of `COc1cc(C)cc2cc(-c3cc(CN4CCC(N)CC4)n4ncnc(N)c34)sc12` [Example 26], the IC50 [3] is reported as 0.13 µM, the “mTOR % inhibition @ 1 μM” value ([1]; 1 μM test compound, 40 μM ATP, mean values) is reported as “no inhib. effect detect” and the IC50 [2] is reported as 0.0826 µM.

In the case of `COc1cc(C)cc2cc(-c3cc(CN4CC5CC5(N)C4)n4ncnc(N)c34)sc12` (stereo not shown) [Example 27], the IC50 [3] is reported as 0.0608 µM, the inhibition at 1 µM [1] is reported as 2.4% and the IC50 [2] is reported as 0.0422 µM.

Molecule `CNC(=O)CNCc1cc(-c2cc3cc(C)cc(OC)c3s2)c2c(N)ncnn12` [Example 28] has an IC50 [3] of 0.0637 µM, an inhibition at 1 µM [1] of 6.9% and an IC50 [2] of 0.0832 µM.

`CNCCNCc1cc(-c2cc3cc(C)cc(OC)c3s2)c2c(N)ncnn12` [Example 29] was tested, and the inhibition at 1 µM [1] was 2.4% and the IC50 [2] was 0.0504 µM.

`COc1cc(C)cc2cc(-c3cc(CNCCNC(N)=O)n4ncnc(N)c34)sc12` [Example 30] gave an inhibition at 1 µM [1] of 16.2% and an IC50 [2] of 0.0542 µM.

`COc1cc(C)cc2cc(-c3cc(CNCCN)n4ncnc(N)c34)sc12` [Example 32] showed an inhibition at 1 µM [1] of 41.3% and an IC50 [2] of 0.0233 µM.

`COc1cc(C)cc2cc(-c3cc(CNCCNC(C)(C)C)n4ncnc(N)c34)sc12` [Example 34] gave an inhibition at 1 µM [1] of 4.9% and an IC50 [2] of 0.0993 µM.

For `COc1cc(C)cc2cc(-c3cc(CN4CCNC(c5cccs5)C4)n4ncnc(N)c34)sc12` (stereo not shown) [Example 35], the inhibition at 1 µM [1] was 34% and the IC50 [2] was 0.0164 µM.

Work on `CCC1CN(Cc2cc(-c3cc4cc(C)cc(OC)c4s3)c3c(N)ncnn23)CCN1` (stereo not shown) [Example 36] yielded an inhibition at 1 µM [1] of 18.3% and an IC50 [2] of 0.017 µM.

With `COc1cc(C)cc2cc(-c3cc(CNC4CCCNC4=O)n4ncnc(N)c34)sc12` (stereo not shown) [Example 37] the inhibition at 1 µM [1] was 13.4% and the IC50 [2] was 0.0449 µM.

`COc1cc(C)cc2cc(-c3cc(CN4CCNC(C(=O)O)C4)n4ncnc(N)c34)sc12` (stereo not shown) [Example 38] gave an inhibition at 1 µM [1] of 11.2% and an IC50 [2] of 0.0457 µM.

With `COc1cc(C)cc2cc(-c3cc(CN4CCNC(=O)C4C)n4ncnc(N)c34)sc12` (stereo not shown) [Example 39] the inhibition at 1 µM [1] was 21.4% and the IC50 [2] was 0.0571 µM.

For `COc1cc(C)cc2cc(-c3cc(CNC4CCC(N)C4)n4ncnc(N)c34)sc12` (stereo not shown) [Example 40], the inhibition at 1 µM [1] was 15% and the IC50 [2] was 0.0638 µM.

With `COc1cc(C)cc2cc(-c3cc(CNC4CCCN(C)C4)n4ncnc(N)c34)sc12` (stereo not shown) [Example 43] the inhibition at 1 µM [1] was 13.8% and the IC50 [2] was 0.0506 µM.

With `COc1cc(C)cc2cc(-c3cc(CN4CC(C)NCC4C)n4ncnc(N)c34)sc12` (stereo not shown) [Example 44] the inhibition at 1 µM [1] was 10.8% and the IC50 [2] was 0.0388 µM.

`COc1cc(C)cc2cc(-c3cc(CN(C)C4CCN(C)C4)n4ncnc(N)c34)sc12` (stereo not shown) [Example 46] showed an inhibition at 1 µM [1] of 26.3% and an IC50 [2] of 0.0208 µM.

Work on `COc1cc(C)cc2cc(-c3cc(CN4C[C@@H]5CCCN[C@@H]5C4)n4ncnc(N)c34)sc12` [Example 47] yielded an inhibition at 1 µM [1] of 29% and an IC50 [2] of 0.0252 µM.

`COc1cc(C)cc2cc(-c3cc(CN4CCCNCC4)n4ncnc(N)c34)sc12` [Example 48] gave an inhibition at 1 µM [1] of 16.9% and an IC50 [2] of 0.0289 µM.

For `COc1cc(C)cc2cc(-c3cc(CN4CCNC(C(C)(C)C)C4)n4ncnc(N)c34)sc12` (stereo not shown) [Example 49], the inhibition at 1 µM [1] was 1.3% and the IC50 [2] was 0.0589 µM.

Molecule `COc1cc(C)cc2cc(-c3cc(CN4CCN5CCCC5C4)n4ncnc(N)c34)sc12` (stereo not shown) [Example 50] has an inhibition at 1 µM [1] of 3.4% and an IC50 [2] of 0.0593 µM.

`COc1cc(C)cc2cc(-c3cc(CN4CCNC(C)C4)n4ncnc(N)c34)sc12` (stereo not shown) [Example 51] gave an inhibition at 1 µM [1] of 0.9% and an IC50 [2] of 0.0413 µM.

With `COc1cc(C)cc2cc(-c3cc(CN(C)CCCN(C)C)n4ncnc(N)c34)sc12` [Example 52] the inhibition at 1 µM [1] was 7.3% and the IC50 [2] was 0.0878 µM.

Work on `COc1cc(C)cc2cc(-c3cc(CN4CC[C@@H](N)C4)n4ncnc(N)c34)sc12` [Example 53] yielded an IC50 [3] of 0.145 µM, an inhibition at 1 µM [1] of 12.6% and an IC50 [2] of 0.0941 µM.

With `COc1cc(C)cc2cc(-c3cc(CN4CCC[C@@H](N)C4)n4ncnc(N)c34)sc12` [Example 55] the IC50 [3] was 0.0187 µM, the inhibition at 1 µM [1] was 24.6% and the IC50 [2] was 0.0162 µM.

For `COc1cc(C)cc2cc(-c3cc(CNC(C)(C)CN4CCCC4)n4ncnc(N)c34)sc12` [Example 57], the IC50 [3] was 0.0533 µM, the inhibition at 1 µM [1] was 16.2% and the IC50 [2] was 0.0325 µM.

With `COc1cc(C)cc2cc(-c3cc(CNCCN4CCC(O)CC4)n4ncnc(N)c34)sc12` [Example 58] the IC50 [3] was 0.0467 µM, the inhibition at 1 µM [1] was 12.6% and the IC50 [2] was 0.0362 µM.

With `COc1cc(C)cc2cc(-c3cc(CN4CCCN(CCO)CC4)n4ncnc(N)c34)sc12` [Example 59] the IC50 [3] was 0.0477 µM, the inhibition at 1 µM [1] was 7% and the IC50 [2] was 0.0394 µM.

Molecule `COc1cc(C)cc2cc(-c3cc(CN4CNC(=O)C4)n4ncnc(N)c34)sc12` [Example 63] has an IC50 [3] of 0.0345 µM and an inhibition at 1 µM [1] of 26%.

For `COc1cc(C)cc2cc(-c3cc(CN4CCN(C(=O)C5CC5)CC4)n4ncnc(N)c34)sc12` [Example 93, (4-{[4-Amino-5-(7-methoxy-5-methyl-1-benzothiophen-2-yl)pyrrolo[2,1-f][1,2,4]triazin-7-yl]-methyl}piperazin-1-yl)(cyclopropyl)methanone], the inhibition at 1 µM [1] was 47.2% and the IC50 [2] was 0.067 µM.

`COc1cc(C)cc2cc(-c3cc(CN4CCN(C(=O)C5CCC5)CC4)n4ncnc(N)c34)sc12` [Example 94, (4-{[4-Amino-5-(7-methoxy-5-methyl-1-benzothiophen-2-yl)pyrrolo[2,1-f][1,2,4]triazin-7-yl]-methyl}piperazin-1-yl)(cyclobutyl)methanone] was tested, and the inhibition at 1 µM [1] was 44.7% and the IC50 [2] was 0.0681 µM.

`COc1cc(C)cc2cc(-c3cc(CN4CCN(C(=O)CCC(N)=O)CC4)n4ncnc(N)c34)sc12` [Example 95, 4-(4-{[4-Amino-5-(7-methoxy-5-methyl-1-benzothiophen-2-yl)pyrrolo[2,1-f][1,2,4]triazin-7-yl]-methyl}piperazin-1-yl)-4-oxobutanamide dihydrochloride] showed an inhibition at 1 µM [1] of 40.3% and an IC50 [2] of 0.0957 µM.

In the case of `COc1cc(C)cc2cc(-c3cc(COCCN(C)C)n4ncnc(N)c34)sc12` [Example 108, 7-{[2-(Dimethylamino)ethoxy]methyl}-5-(7-methoxy-5-methyl-1-benzothiophen-2-yl)pyrrolo-[2,1-f][1,2,4]triazin-4-amine dihydrochloride], the inhibition at 1 µM [1] is reported as 7.1% and the IC50 [2] is reported as 0.0976 µM.

`Nc1nccn2c(C3CCC3)nc(-c3ccc4sccc4c3)c12` [WO 2007/061737 Example 4, reference compound] showed an IC50 [3] of 2.4 µM.

`Nc1nccn2c(C3CCNCC3)nc(-c3cc4ccccc4[nH]3)c12` [WO 2007/061737 Example 25, reference compound] showed an IC50 [3] of 1.2 µM and an IC50 [2] of 0.88 µM.

For `Nc1nccn2c(C3CCC3)nc(-c3cc4ccccc4s3)c12` [WO 2007/061737 Example 120, reference compound], the IC50 [3] was 0.506 µM.

`Nc1nccn2c(C3CCN(C(=O)c4ccsc4)CC3)nc(-c3cc4ccccc4s3)c12` [WO 2007/061737 Example 157, reference compound] showed an IC50 [3] of 2.3 µM and an IC50 [2] of 3 µM.

For `Cc1c(-c2nc(C3CCN(C(=O)c4ccsc4)CC3)n3ccnc(N)c23)sc2ccccc12` [WO 2007/061737 Example 209, reference compound], the IC50 [3] was 0.786 µM and the IC50 [2] was 2.8 µM.
